According to US4656036A, “Antibiotics Tejeramycin and production thereof” (Merck & Co., Inc., priority 1985, dated 1987):

Test system: Pseudomonas aeruginosa MB 2835
Test: In vivo activity against Pseudomonas aeruginosa MB 2835 systemic infections in mice (Table X)
Parameters: species or system Pseudomonas aeruginosa; CD 1 female mice
Conditions: for s.c./i.p. ED50 administration ratio: 10080 min; for ED50 i.p.: i.p. at 0 and 6 hours after infection; for ED50 i.p. / ED50 s.c.: multiplied by two doses, 7 days observation; for ED50 s.c.: s.c. at 0 and 6 hours after infection
Experimental: The in vivo activities of Tejeramycin, components A through G were determined against Pseudomonas aeruginosa MB 2835 infections in mice. Experimental systemic infections were produced in CD 1 female mice (Charles River Breeding Labs., Wilmington, Ma.), average body weight 19-22 grams, by the intraperitoneal (i.p.) injection of a suitably diluted overnight culture of Pseudomonas aeruginosa MB-2835 in brain heart infusion broth (Difco). The challenge dose varied from about 11-50 LD50 's LD50 =median lethal dose, the dose that should kill 50% of the infected, untreated mice). Under these conditions, the infected, untreated mice died within 48 hours.
The antibiotics were administered as aqueous solutions by intraperitoneal or subcutaneous (s.c.) injection at 0 and 6 hours after infection. At least four different dose levels of the antibiotics were used; each dose group consisted of five mice. […] Statist. Assoc. 42: 282-296, 1947.
From rich cuts 1-9e described in Tables III and IV, a series of seven samples were prepared for in vivo evaluation. Sample composition as well as in vivo results are summarized in Table X. Carbenicillin and gentamicin were included as controls.

| Compound | s.c./i.p. ED50 administration ratio (Example A) | ED50 i.p. (Example A) [mg] | ED50 s.c. (Example A) [mg] | s.c./i.p. ED50 administration ratio (Example B) | ED50 i.p. (Example B) [mg] | ED50 s.c. (Example B) [mg] |
| --- | --- | --- | --- | --- | --- | --- |
| CC1(C)S[C@@H]2[C@H](NC(=O)C(C(=O)O)c3ccccc3)C(=O)N2[C@H]1C(=O)O (stereo partly drawn) [Carbenicillin] | 3.2 | 5.31 | 17.1 | 1.5 | 4.14 | 6.04 |
| Gentamicin | 23 | 0.013 | 0.30 | 20 | 0.0063 | 0.125 |
